Results reported in ChEMBL document CHEMBL3085643, “Synthesis and evaluation in monkey of [(18)F]4-fluoro-N-methyl-N-(4-(6-(methylamino)pyrimidin-4-yl)thiazol-2-yl)benzamide ([(18)F]FIMX): a promising radioligand for PET imaging of brain metabotropic glutamate receptor 1 (mGluR1)” (J Med Chem, 2013).

Columns and labels:
[1] = biological target: Metabotropic glutamate receptor 5 (Homo sapiens, UniProt P41594); assay: Binding affinity to human mGluR5 by PDSP assay
[2] = biological target: Histamine H3 receptor (Homo sapiens, UniProt Q9Y5N1); assay: Binding affinity to human histamine H3 receptor by PDSP assay
[3] = biological target: Alpha-1D adrenergic receptor (Homo sapiens, UniProt P25100); assay: Binding affinity to human alpha-1D adrenergic receptor by PDSP assay
[4] = biological target: D(1B) dopamine receptor (Homo sapiens, UniProt P21918); assay: Binding affinity to human dopamine D5 receptor by PDSP assay
[5] = biological target: Glutamate [NMDA] receptor; assay: Binding affinity to human NMDA receptor by PDSP assay
[6] = biological target: Translocator protein (Homo sapiens, UniProt P30536); assay: Binding affinity to human TSPO receptor by PDSP assay
[7] = biological target: Alpha-2C adrenergic receptor (Homo sapiens, UniProt P18825); assay: Binding affinity to human alpha-2C adrenergic receptor by PDSP assay
[8] = biological target: 5-hydroxytryptamine receptor 2C (Homo sapiens, UniProt P28335); assay: Binding affinity to human 5-HT2C receptor by PDSP assay
[9] = biological target: Histamine H1 receptor (Homo sapiens, UniProt P35367); assay: Binding affinity to human histamine H1 receptor by PDSP assay
[10] = biological target: D(2) dopamine receptor (Homo sapiens, UniProt P14416); assay: Binding affinity to human dopamine D2 receptor by PDSP assay
[11] = biological target: Mu-type opioid receptor (Homo sapiens, UniProt P35372); assay: Binding affinity to human mu opioid receptor by PDSP assay
[12] = biological target: D(4) dopamine receptor (Homo sapiens, UniProt P21917); assay: Binding affinity to human dopamine D4 receptor by PDSP assay
[13] = biological target: 5-hydroxytryptamine receptor 1E (Homo sapiens, UniProt P28566); assay: Binding affinity to human 5-HT1E receptor by PDSP assay
[14] = biological target: Alpha-2B adrenergic receptor (Homo sapiens, UniProt P18089); assay: Binding affinity to human alpha-2B adrenergic receptor by PDSP assay
[15] = biological target: D(1A) dopamine receptor (Homo sapiens, UniProt P21728); assay: Binding affinity to human dopamine D1 receptor by PDSP assay
[16] = biological target: 5-hydroxytryptamine receptor 1A (Homo sapiens, UniProt P08908); assay: Binding affinity to human 5-HT1A receptor by PDSP assay
[17] = biological target: Beta-1 adrenergic receptor (Homo sapiens, UniProt P08588); assay: Binding affinity to human beta1 adrenergic receptor by PDSP assay
[18] = biological target: Metabotropic glutamate receptor 5 (Rattus norvegicus, UniProt P31424); assay: Binding affinity to mGluR5 in rat brain; type: tissue-based
[19] = biological target: Alpha-1A adrenergic receptor (Homo sapiens, UniProt P35348); assay: Binding affinity to human alpha-1A adrenergic receptor by PDSP assay
[20] = biological target: Muscarinic acetylcholine receptor M4 (Homo sapiens, UniProt P08173); assay: Binding affinity to human muscarinic M4 receptor by PDSP assay
[21] = biological target: Muscarinic acetylcholine receptor M2 (Homo sapiens, UniProt P08172); assay: Binding affinity to human muscarinic M2 receptor by PDSP assay
[22] = biological target: 5-hydroxytryptamine receptor 3A (Homo sapiens, UniProt P46098); assay: Binding affinity to human 5-HT3 receptor by PDSP assay
[23] = biological target: 5-hydroxytryptamine receptor 5A (Homo sapiens, UniProt P47898); assay: Binding affinity to human 5-HT5A receptor by PDSP assay
[24] = biological target: Delta-type opioid receptor (Homo sapiens, UniProt P41143); assay: Binding affinity to human delta opioid receptor by PDSP assay
[25] = biological target: Beta-3 adrenergic receptor (Homo sapiens, UniProt P13945); assay: Binding affinity to human beta3 adrenergic receptor by PDSP assay
[26] = biological target: 5-hydroxytryptamine receptor 1B (Homo sapiens, UniProt P28222); assay: Binding affinity to human 5-HT1B receptor by PDSP assay
[27] = biological target: 5-hydroxytryptamine receptor 1D (Homo sapiens, UniProt P28221); assay: Binding affinity to human 5-HT1D receptor by PDSP assay
[28] = biological target: Beta-2 adrenergic receptor (Homo sapiens, UniProt P07550); assay: Binding affinity to human beta2 adrenergic receptor by PDSP assay
[29] = biological target: Sodium-dependent noradrenaline transporter (Homo sapiens, UniProt P23975); assay: Binding affinity to human NET by PDSP assay
[30] = Binding affinity to BZP site in rat brain by PDSP assay; type: tissue-based
[31] = biological target: 5-hydroxytryptamine receptor 2B (Homo sapiens, UniProt P41595); assay: Binding affinity to human 5-HT2B receptor by PDSP assay
[32] = biological target: 5-hydroxytryptamine receptor 7 (Homo sapiens, UniProt P34969); assay: Binding affinity to human 5-HT7 receptor by PDSP assay
[33] = biological target: Muscarinic acetylcholine receptor M1 (Homo sapiens, UniProt P11229); assay: Binding affinity to human muscarinic M1 receptor by PDSP assay
[34] = Binding affinity to human sigma-2 receptor by PDSP assay
[35] = biological target: 5-hydroxytryptamine receptor 6 (Homo sapiens, UniProt P50406); assay: Binding affinity to human 5-HT6 receptor by PDSP assay
[36] = biological target: Kappa-type opioid receptor (Homo sapiens, UniProt P41145); assay: Binding affinity to human kappa opioid receptor by PDSP assay
[37] = biological target: Muscarinic acetylcholine receptor M5 (Homo sapiens, UniProt P08912); assay: Binding affinity to human muscarinic M5 receptor by PDSP assay
[38] = biological target: GABA-A receptor; agonist GABA site; assay: Binding affinity to human GABAA receptor by PDSP assay; type: protein-complex assay
[39] = biological target: D(3) dopamine receptor (Homo sapiens, UniProt P35462); assay: Binding affinity to human dopamine D3 receptor by PDSP assay
[40] = biological target: Sigma non-opioid intracellular receptor 1 (Homo sapiens, UniProt Q99720); assay: Binding affinity to human sigma-1 receptor by PDSP assay
[41] = biological target: Sodium-dependent serotonin transporter (Homo sapiens, UniProt P31645); assay: Binding affinity to human SERT by PDSP assay
[42] = biological target: Muscarinic acetylcholine receptor M3 (Homo sapiens, UniProt P20309); assay: Binding affinity to human muscarinic M3 receptor by PDSP assay
[43] = biological target: Alpha-1B adrenergic receptor (Homo sapiens, UniProt P35368); assay: Binding affinity to human alpha-1B adrenergic receptor by PDSP assay
[44] = biological target: Alpha-2A adrenergic receptor (Homo sapiens, UniProt P08913); assay: Binding affinity to human alpha-2A adrenergic receptor by PDSP assay

Sequence of Mu-type opioid receptor (P35372 whole entry): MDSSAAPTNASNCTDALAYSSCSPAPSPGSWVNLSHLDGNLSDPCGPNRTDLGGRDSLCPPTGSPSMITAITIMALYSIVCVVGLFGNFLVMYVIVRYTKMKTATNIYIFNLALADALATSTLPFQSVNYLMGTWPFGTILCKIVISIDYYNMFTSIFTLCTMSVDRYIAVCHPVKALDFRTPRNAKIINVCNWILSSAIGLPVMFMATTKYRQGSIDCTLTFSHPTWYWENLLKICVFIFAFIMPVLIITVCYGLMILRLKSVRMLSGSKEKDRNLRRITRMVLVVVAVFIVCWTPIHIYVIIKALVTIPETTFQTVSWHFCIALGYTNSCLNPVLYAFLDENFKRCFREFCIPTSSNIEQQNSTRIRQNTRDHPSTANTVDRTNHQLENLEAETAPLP
Sequence of D(4) dopamine receptor (P21917 whole entry): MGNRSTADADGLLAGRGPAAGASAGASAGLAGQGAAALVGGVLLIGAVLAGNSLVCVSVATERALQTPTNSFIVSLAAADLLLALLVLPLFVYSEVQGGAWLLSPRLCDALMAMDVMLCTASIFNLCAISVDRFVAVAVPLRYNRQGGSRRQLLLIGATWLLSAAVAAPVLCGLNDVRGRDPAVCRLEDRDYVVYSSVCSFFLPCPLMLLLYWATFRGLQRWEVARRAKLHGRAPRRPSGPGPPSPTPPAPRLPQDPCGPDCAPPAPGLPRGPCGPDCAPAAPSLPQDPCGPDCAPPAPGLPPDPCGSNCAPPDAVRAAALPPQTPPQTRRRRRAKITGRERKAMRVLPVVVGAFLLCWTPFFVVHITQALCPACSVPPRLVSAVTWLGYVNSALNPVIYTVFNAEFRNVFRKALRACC
Sequence of Sigma non-opioid intracellular receptor 1 (Q99720 whole entry): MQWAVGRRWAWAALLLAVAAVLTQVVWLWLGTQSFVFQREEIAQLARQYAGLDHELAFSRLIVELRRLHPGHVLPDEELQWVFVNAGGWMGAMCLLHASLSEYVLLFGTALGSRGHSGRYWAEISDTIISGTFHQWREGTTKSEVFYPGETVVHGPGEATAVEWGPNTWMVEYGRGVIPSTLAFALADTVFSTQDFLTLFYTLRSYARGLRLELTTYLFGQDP
Sequence of D(3) dopamine receptor (P35462 whole entry): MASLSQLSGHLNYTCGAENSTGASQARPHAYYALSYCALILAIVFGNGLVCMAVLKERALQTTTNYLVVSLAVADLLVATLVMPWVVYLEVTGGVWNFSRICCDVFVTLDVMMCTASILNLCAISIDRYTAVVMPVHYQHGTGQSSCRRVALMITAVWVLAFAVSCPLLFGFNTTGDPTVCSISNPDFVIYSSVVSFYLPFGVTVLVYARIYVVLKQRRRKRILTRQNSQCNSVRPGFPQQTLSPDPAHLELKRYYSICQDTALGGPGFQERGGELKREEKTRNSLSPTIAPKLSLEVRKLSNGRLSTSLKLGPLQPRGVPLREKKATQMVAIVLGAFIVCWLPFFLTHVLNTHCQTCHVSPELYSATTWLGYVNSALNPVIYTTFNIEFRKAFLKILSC
Sequence of Sodium-dependent noradrenaline transporter (P23975 whole entry): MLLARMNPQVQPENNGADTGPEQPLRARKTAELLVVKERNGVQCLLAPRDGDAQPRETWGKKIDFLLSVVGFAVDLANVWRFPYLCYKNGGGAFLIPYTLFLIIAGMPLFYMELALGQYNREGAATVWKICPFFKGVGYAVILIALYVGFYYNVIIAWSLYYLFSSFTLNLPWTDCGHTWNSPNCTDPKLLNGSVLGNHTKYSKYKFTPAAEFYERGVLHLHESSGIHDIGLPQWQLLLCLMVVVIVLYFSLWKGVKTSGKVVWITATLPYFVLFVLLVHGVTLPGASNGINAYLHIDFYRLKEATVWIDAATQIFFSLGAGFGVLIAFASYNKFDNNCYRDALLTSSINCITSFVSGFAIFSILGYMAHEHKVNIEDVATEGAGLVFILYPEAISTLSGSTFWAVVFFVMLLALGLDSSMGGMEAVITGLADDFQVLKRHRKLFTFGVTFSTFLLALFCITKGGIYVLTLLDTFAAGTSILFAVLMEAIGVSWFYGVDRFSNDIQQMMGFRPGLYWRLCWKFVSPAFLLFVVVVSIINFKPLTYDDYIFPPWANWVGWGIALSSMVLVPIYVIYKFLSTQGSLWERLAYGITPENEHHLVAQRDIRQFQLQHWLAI
Sequence of Alpha-2B adrenergic receptor (P18089 whole entry): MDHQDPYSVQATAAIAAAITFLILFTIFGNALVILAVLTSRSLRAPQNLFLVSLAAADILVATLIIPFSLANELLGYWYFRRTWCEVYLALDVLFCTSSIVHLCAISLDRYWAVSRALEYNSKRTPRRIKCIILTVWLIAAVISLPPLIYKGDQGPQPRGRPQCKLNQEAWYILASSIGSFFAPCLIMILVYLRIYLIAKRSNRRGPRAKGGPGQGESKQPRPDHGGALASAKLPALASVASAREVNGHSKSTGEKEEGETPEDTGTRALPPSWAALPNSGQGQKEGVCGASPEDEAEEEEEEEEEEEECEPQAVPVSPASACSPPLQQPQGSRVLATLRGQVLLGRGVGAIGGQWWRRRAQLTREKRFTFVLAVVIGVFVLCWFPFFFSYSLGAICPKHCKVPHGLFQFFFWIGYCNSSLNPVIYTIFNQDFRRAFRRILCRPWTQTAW
Sequence of D(2) dopamine receptor (P14416 whole entry): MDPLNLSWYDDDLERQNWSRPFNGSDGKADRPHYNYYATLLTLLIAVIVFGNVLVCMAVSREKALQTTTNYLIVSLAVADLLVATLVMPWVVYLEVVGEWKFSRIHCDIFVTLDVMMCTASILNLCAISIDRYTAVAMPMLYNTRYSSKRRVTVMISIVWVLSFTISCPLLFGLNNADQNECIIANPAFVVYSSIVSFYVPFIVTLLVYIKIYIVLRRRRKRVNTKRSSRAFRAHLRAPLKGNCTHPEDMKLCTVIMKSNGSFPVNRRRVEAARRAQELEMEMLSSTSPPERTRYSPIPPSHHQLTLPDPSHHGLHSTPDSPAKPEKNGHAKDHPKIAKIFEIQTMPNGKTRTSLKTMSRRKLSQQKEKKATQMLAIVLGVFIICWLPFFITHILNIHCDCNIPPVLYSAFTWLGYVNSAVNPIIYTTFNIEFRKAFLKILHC
Sequence of 5-hydroxytryptamine receptor 3A (P46098 whole entry): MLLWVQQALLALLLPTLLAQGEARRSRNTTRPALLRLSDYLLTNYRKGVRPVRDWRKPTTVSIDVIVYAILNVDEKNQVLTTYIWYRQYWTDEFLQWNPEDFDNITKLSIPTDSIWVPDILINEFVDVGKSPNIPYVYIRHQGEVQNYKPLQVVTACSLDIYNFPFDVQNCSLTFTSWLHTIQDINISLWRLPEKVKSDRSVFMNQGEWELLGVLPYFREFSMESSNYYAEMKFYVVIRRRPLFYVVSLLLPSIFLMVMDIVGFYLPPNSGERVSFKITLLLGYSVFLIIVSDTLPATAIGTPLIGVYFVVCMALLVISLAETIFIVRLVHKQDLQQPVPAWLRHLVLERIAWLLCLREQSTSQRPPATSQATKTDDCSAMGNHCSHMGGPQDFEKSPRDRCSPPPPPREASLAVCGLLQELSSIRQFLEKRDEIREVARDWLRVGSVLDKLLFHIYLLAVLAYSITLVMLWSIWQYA
Sequence of Delta-type opioid receptor (P41143 whole entry): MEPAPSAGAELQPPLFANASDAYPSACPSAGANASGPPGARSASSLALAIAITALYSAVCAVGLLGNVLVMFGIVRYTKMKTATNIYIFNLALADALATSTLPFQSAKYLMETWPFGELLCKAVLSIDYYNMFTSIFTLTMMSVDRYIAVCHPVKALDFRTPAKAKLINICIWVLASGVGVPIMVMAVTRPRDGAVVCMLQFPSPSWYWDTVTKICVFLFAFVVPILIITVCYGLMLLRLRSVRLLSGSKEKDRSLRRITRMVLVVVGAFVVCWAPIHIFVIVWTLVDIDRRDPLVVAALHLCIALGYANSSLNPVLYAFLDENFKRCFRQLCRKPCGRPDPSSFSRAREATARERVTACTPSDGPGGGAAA
Sequence of Alpha-1A adrenergic receptor (P35348 whole entry): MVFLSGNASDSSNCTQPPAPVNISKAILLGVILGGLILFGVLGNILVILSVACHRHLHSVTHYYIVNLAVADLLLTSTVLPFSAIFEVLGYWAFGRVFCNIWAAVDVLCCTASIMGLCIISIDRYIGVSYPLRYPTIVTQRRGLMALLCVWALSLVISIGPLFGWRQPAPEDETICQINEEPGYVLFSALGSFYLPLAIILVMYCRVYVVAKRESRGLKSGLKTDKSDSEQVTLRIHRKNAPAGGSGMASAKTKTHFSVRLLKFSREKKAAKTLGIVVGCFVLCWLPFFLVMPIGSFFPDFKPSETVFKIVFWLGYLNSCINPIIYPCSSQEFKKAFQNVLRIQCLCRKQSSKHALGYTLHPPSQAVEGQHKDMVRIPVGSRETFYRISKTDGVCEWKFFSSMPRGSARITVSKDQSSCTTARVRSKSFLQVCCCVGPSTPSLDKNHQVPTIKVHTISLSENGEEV
Sequence of Beta-3 adrenergic receptor (P13945 whole entry): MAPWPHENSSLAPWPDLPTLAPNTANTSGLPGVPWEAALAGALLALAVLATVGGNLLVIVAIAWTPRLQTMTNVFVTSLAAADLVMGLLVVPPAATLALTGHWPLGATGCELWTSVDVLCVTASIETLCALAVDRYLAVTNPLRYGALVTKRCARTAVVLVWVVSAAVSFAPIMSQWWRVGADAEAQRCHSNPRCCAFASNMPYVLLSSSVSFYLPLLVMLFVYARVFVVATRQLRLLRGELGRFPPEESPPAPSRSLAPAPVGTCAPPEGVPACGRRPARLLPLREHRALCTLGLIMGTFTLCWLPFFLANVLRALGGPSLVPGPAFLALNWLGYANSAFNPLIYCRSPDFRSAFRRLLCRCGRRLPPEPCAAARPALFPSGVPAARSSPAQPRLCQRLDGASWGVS
Sequence of Translocator protein (P30536 whole entry): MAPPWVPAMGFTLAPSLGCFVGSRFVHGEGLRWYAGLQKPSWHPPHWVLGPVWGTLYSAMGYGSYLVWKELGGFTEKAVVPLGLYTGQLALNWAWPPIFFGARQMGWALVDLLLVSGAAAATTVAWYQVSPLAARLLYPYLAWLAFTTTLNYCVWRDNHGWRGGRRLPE

Compound `CNc1cc(-c2csc(N(C)C(=O)c3ccc(F)cc3)n2)ncn1` has a Ki [1] of 7.9 µM, a Ki [2] of over 10 µM and a Ki [3] of over 10 µM. For the same compound, the Ki [4] was over 10 µM, the Ki [5] was over 10 µM and the Ki [6] was over 10 µM. The Ki [7] was over 10 µM, the Ki [8] was over 10 µM and the Ki [9] was over 10 µM. For the same compound, the Ki [10] was over 10 µM, the Ki [11] was over 10 µM and the Ki [12] was over 10 µM. For the same compound, the Ki [13] was over 10 µM, the Ki [14] was over 10 µM and the Ki [15] was over 10 µM. The Ki [16] was over 10 µM, the Ki [17] was over 10 µM and the Ki [18] was 2.1 µM. The Ki [19] was over 10 µM, the Ki [20] was over 10 µM and the Ki [21] was over 10 µM. For the same compound, the Ki [22] was over 10 µM, the Ki [23] was over 10 µM and the Ki [24] was over 10 µM. It also gave a Ki [25] of over 10 µM, a Ki [26] of over 10 µM and a Ki [27] of over 10 µM. For the same compound, the Ki [28] was over 10 µM, the Ki [29] was over 10 µM and the Ki [30] was over 10 µM. The Ki [31] was over 10 µM, the Ki [32] was over 10 µM and the Ki [33] was over 10 µM. The Ki [34] was over 10 µM, the Ki [35] was over 10 µM and the Ki [36] was over 10 µM. It also gave a Ki [37] of over 10 µM, a Ki [38] of over 10 µM and a Ki [39] of over 10 µM. For the same compound, the Ki [40] was over 10 µM, the Ki [41] was over 10 µM and the Ki [42] was over 10 µM. The Ki [43] was over 10 µM and the Ki [44] was over 10 µM.
